Marks after values point to notes of the source that are not given here.
Tests used:
[1] = Reduction of bitterness of a naringin solution, panel of experts; type: in vivo; conditions: 100 ppm naringin
Text: (§1) In order to quantify the reduction (i.e. the masking or decrease) of the impression of bitterness in a sample, the bitterness of a solution containing 500 ppm caffeine or 200 ppm theobromine or 100 ppm naringin or 250 ppm salicin was compared by a panel of experts in each case with a sample that contained 500 ppm caffeine or 200 ppm theobromine or 100 ppm naringin or 250 ppm salicin and additionally the amount stated in each case of a substance to be assessed (with respect to capacity for reducing bitterness) (classification: 1 [not bitter] through 10 [extremely bitter]). The evaluation, i.e. calculation of the reduction (in %) of the impression of bitterness, was based in each case on the mean values of the appraisals of the panel of experts.

[2] = Reduction of bitterness of a caffeine solution, panel of experts; type: in vivo; conditions: 500 ppm caffeine; for Impression of bitterness (1-10) b) with test substance: scale 1-10
Text: as §1

[3] = Reduction of bitterness of a theobromine solution, panel of experts; type: in vivo; conditions: 300 ppm theobromine; for Impression of bitterness (1-10) b) with test substance: scale 1-10
[4] = Reduction of bitterness of a salicin solution, panel of experts; type: in vivo; conditions: 250 ppm salicin, 50 ppm test substance
Text: as §1

[5] = Reduction of bitterness/astringency of an EGCG solution as a function of time, panel of experts; type: in vivo; conditions: 750 ppm EGCG + 125 ppm ascorbic acid, 50 ppm test substance
Text: In order to quantify the reduction (i.e. the masking or decrease) of the impression of bitterness or astringency in a sample over a specified course of time, the bitterness, or astringency of a solution containing 750 ppm epigallocatechin gallate (EGCG) and 125 ppm ascorbic acid was compared by a panel of experts in each case with a sample that contained 750 ppm epigallocatechin gallate, 125 ppm ascorbic acid and additionally the amount stated in each case of a substance to be assessed (with respect to capacity for reducing bitterness), in this case a racemic mixture of compounds (7) and (8) (classification: 1 [not bitter] through 10 [extremely bitter]; or 1 [not astringent] through 10 [extremely astringent]). […] The samples were assessed by the members of the panel one after another after neutralization. The evaluation, i.e. calculation of the reduction (in %) of the impression of bitterness/astringency was based at each measurement time point in each case on the mean values of the appraisals of the panel of experts for the epigallocatechin gallate solution and the sample to be compared, containing epigallocatechin gallate and a substance to be assessed.

BGC823 cancer cell line = conditions: from CN 101906090; cited from earlier work
Caco-2 cells = conditions: from Chem. Pharm. Bull. 2010, 58, 242-246; cited from earlier work
[6] = 25 ppm test substance, scale 1-10

O=C1CC(c2ccccc2O)c2c(O)cc(O)cc2O1 (racemic) [(1) + (2), 5,7-dihydroxy-4-(2-hydroxyphenyl)chroman-2-one]
% reduction of the impression of bitterness ([1]; 5 ppm test substance): 31.7% | Impression of bitterness (1-10) b) with test substance ([1]; 5 ppm test substance, scale 1 [not bitter] through 10 [extremely bitter]): 3.7 ± 2.6

COc1cc(C2CC(=O)Oc3cc(O)cc(O)c32)ccc1O (racemic) [(5) + (6), 5,7-dihydroxy-4-(4-hydroxy-3-methoxyphenyl)chroman-2-one]
% reduction of the impression of bitterness ([1]; 25 ppm test substance): 49.0% | Impression of bitterness (1-10) b) with test substance [1, 6]: 3.1 ± 1.4 | % reduction of the impression of bitterness ([2]; 50 ppm test substance): 23.5% | Impression of bitterness (1-10) b) with test substance ([2]; 50 ppm test substance): 3.0 ± 1.3 | % reduction of the impression of bitterness ([3]; 25 ppm test substance): 30.3% | Impression of bitterness (1-10) b) with test substance ([3]; 25 ppm test substance): 3.1 ± 1.6 | % reduction of the impression of bitterness [4]: 11.1% | Impression of bitterness (1-10) b) with test substance ([4]; scale 1-10): 5.9 ± 2.5

O=C1CC(c2ccc(O)cc2)c2c(O)cc(O)cc2O1 (racemic) [(7) + (8), 5,7-dihydroxy-4-(4-hydroxyphenyl)chroman-2-one]
% reduction of the impression of bitterness ([1]; 25 ppm test substance): 48.6% | Impression of bitterness (1-10) b) with test substance [1, 6]: 2.9 ± 1.9 | % reduction of the impression of bitterness ([2]; 25 ppm test substance): 15.5% | Impression of bitterness (1-10) b) with test substance ([2]; 25 ppm test substance): 3.4 ± 1.4 | % reduction of the impression of bitterness ([3]; 10 ppm test substance): 21.7% | Impression of bitterness (1-10) b) with test substance ([3]; 10 ppm test substance): 3.6 ± 1.5 | % reduction of the impression of astringency ([5]; time 0 s): −1% | % reduction of the impression of bitterness ([5]; time 0 s): −14% | % reduction of the impression of astringency ([5]; time 10 s): −7% | % reduction of the impression of bitterness ([5]; time 10 s): −22%* | % reduction of the impression of astringency ([5]; time 30 s): −7% | % reduction of the impression of bitterness ([5]; time 30 s): −25%* | % reduction of the impression of astringency ([5]; time 50 s): −19% | % reduction of the impression of bitterness ([5]; time 50 s): −35%* | % reduction of the impression of astringency ([5]; time 70 s): −15% | % reduction of the impression of bitterness ([5]; time 70 s): −29%

O=C1CC(c2ccc(O)cc2)c2ccc(O)cc2O1 (racemic) [(17) + (18), 7-hydroxy-4-(4-hydroxyphenyl)chroman-2-one]
% reduction of the impression of bitterness ([1]; 25 ppm test substance): 44.3% | Impression of bitterness (1-10) b) with test substance [1, 6]: 3.0 ± 1.6

COc1cc(C2CC(=O)Oc3cc(O)ccc32)ccc1O (racemic) [(23) + (24), 7-hydroxy-4-(4-hydroxy-3-methoxyphenyl)chroman-2-one]
% reduction of the impression of bitterness ([3]; 25 ppm test substance): 22.4% | Impression of bitterness (1-10) b) with test substance ([3]; 25 ppm test substance): 3.5 ± 1.6

COc1ccc(C2CC(=O)Oc3cc(O)ccc32)cc1O (centres unmarked) [(39)]
effectiveness against the BGC823 cancer cell line (BGC823 cancer cell line): effective

COc1cc(C2CC(=O)Oc3cc(O)cc(OC)c32)cc(OC)c1OC (centres unmarked) [(40)]
cytotoxicity against Caco-2 cells (Caco-2 cells): strong cytotoxicity
